Article PMC12310023 (PLOS Neglected Tropical Diseases, 2025)

Test system: NLuc-expressing C. parvum
Assay: NLuc C. parvum IFNγ-KO mouse infection model, oocyst shedding
Format: in vivo

How did the “RLU Raw” value (8 mg/kg QD x3, group I, Day 6, Cp Mouse Efficacy 1) turn out when `CC(C)(CO)Cn1nc(-c2ccc3cc(OC4CC4)ccc3c2)c(C(N)=O)c1N` [compound 1708] was run?
Its value is 754480 RLU.

What about the “RLU Raw” value (8 mg/kg QD x3, group I, Day 7, Cp Mouse Efficacy 1) of the same compound?
The value was 2842576 RLU.

What about the “RLU Raw” value (8 mg/kg QD x3, group I, Day 8, Cp Mouse Efficacy 1) of the same compound?
The value was 17367584 RLU.

What about the “RLU Raw” value (8 mg/kg QD x3, group I, Day 9, Cp Mouse Efficacy 1) of the same compound?
Its value is 4938000 RLU.

What about the “RLU Raw” value (8 mg/kg QD x3, group I, Day 10, Cp Mouse Efficacy 1) of the same compound?
The value was 9525504 RLU.

What about the “RLU Raw” value (8 mg/kg QD x3, group I, Day 13, Cp Mouse Efficacy 1) of the same compound?
Its value is 2717520 RLU.

And the “RLU Raw” value (8 mg/kg QD x3, group I, Day 15, Cp Mouse Efficacy 1)?
Its value is 2626944 RLU.

What about the “RLU Raw” value (8 mg/kg QD x3, group I, Day 17, Cp Mouse Efficacy 1) of the same compound?
Its value is 5999920 RLU.

What about the “RLU Raw” value (8 mg/kg QD x3, group I, Day 20, Cp Mouse Efficacy 1) of the same compound?
Its value is 14563168 RLU.

And the “RLU standardized by fecal weight” value (8 mg/kg QD x3, group I, day 6 p.i., Cp Mouse Efficacy 1)?
Its value is 118816 RLU.

And the “RLU standardized by fecal weight” value (8 mg/kg QD x3, group I, day 7 p.i., Cp Mouse Efficacy 1)?
Its value is 653466 RLU.

And the “RLU standardized by fecal weight” value (8 mg/kg QD x3, group I, day 8 p.i., Cp Mouse Efficacy 1)?
Its value is 4135139 RLU.

What about the “RLU standardized by fecal weight” value (8 mg/kg QD x3, group I, day 9 p.i., Cp Mouse Efficacy 1) of the same compound?
Its value is 1371667 RLU.

And the “RLU standardized by fecal weight” value (8 mg/kg QD x3, group I, day 10 p.i., Cp Mouse Efficacy 1)?
The value was 1763982 RLU.

What about the “RLU standardized by fecal weight” value (8 mg/kg QD x3, group I, day 13 p.i., Cp Mouse Efficacy 1) of the same compound?
The value was 414889 RLU.

And the “RLU standardized by fecal weight” value (8 mg/kg QD x3, group I, day 15 p.i., Cp Mouse Efficacy 1)?
Its value is 314604 RLU.

What about the “RLU standardized by fecal weight” value (8 mg/kg QD x3, group I, day 17 p.i., Cp Mouse Efficacy 1) of the same compound?
The value was 909079 RLU.

What about the “RLU standardized by fecal weight” value (8 mg/kg QD x3, group I, day 20 p.i., Cp Mouse Efficacy 1) of the same compound?
The value was 1879118 RLU.

What about the “RLU Raw” value (15 mg/kg QD x3, group H, Day 6, Cp Mouse Efficacy 1) of the same compound?
The value was 464960 RLU.

What about the “RLU Raw” value (15 mg/kg QD x3, group H, Day 7, Cp Mouse Efficacy 1) of the same compound?
The value was 131248 RLU.

What about the “RLU Raw” value (15 mg/kg QD x3, group H, Day 8, Cp Mouse Efficacy 1) of the same compound?
The value was 447488 RLU.

And the “RLU Raw” value (15 mg/kg QD x3, group H, Day 9, Cp Mouse Efficacy 1)?
The value was 45888 RLU.

And the “RLU Raw” value (15 mg/kg QD x3, group H, Day 10, Cp Mouse Efficacy 1)?
The value was 5216 RLU.

What about the “RLU Raw” value (15 mg/kg QD x3, group H, Day 13, Cp Mouse Efficacy 1) of the same compound?
Its value is 1120 RLU.

And the “RLU Raw” value (15 mg/kg QD x3, group H, Day 15, Cp Mouse Efficacy 1)?
Its value is 6784 RLU.

And the “RLU Raw” value (15 mg/kg QD x3, group H, Day 17, Cp Mouse Efficacy 1)?
The value was 944 RLU.

What about the “RLU Raw” value (15 mg/kg QD x3, group H, Day 20, Cp Mouse Efficacy 1) of the same compound?
The value was 848 RLU.

What about the “RLU standardized by fecal weight” value (15 mg/kg QD x3, group H, day 6 p.i., Cp Mouse Efficacy 1) of the same compound?
The value was 86104 RLU.

And the “RLU standardized by fecal weight” value (15 mg/kg QD x3, group H, day 7 p.i., Cp Mouse Efficacy 1)?
The value was 18617 RLU.

And the “RLU standardized by fecal weight” value (15 mg/kg QD x3, group H, day 8 p.i., Cp Mouse Efficacy 1)?
Its value is 49446 RLU.

What about the “RLU standardized by fecal weight” value (15 mg/kg QD x3, group H, day 9 p.i., Cp Mouse Efficacy 1) of the same compound?
The value was 4543 RLU.

And the “RLU standardized by fecal weight” value (15 mg/kg QD x3, group H, day 10 p.i., Cp Mouse Efficacy 1)?
Its value is 1391 RLU.

And the “RLU standardized by fecal weight” value (15 mg/kg QD x3, group H, day 13 p.i., Cp Mouse Efficacy 1)?
The value was 89 RLU.

What about the “RLU standardized by fecal weight” value (15 mg/kg QD x3, group H, day 15 p.i., Cp Mouse Efficacy 1) of the same compound?
The value was 665 RLU.

What about the “RLU standardized by fecal weight” value (15 mg/kg QD x3, group H, day 17 p.i., Cp Mouse Efficacy 1) of the same compound?
The value was 115 RLU.

What about the “RLU standardized by fecal weight” value (15 mg/kg QD x3, group H, day 20 p.i., Cp Mouse Efficacy 1) of the same compound?
Its value is 86 RLU.

What about the “RLU Raw” value (15 mg/kg x 1 days, group G, Day 6, Cp Mouse Efficacy 2) of the same compound?
Its value is 267600 RLU.

What about the “RLU Raw” value (15 mg/kg x 1 days, group G, Day 7, Cp Mouse Efficacy 2) of the same compound?
Its value is 185696 RLU.

And the “RLU Raw” value (15 mg/kg x 1 days, group G, Day 8, Cp Mouse Efficacy 2)?
The value was 380816 RLU.

And the “RLU Raw” value (15 mg/kg x 1 days, group G, Day 9, Cp Mouse Efficacy 2)?
Its value is 630928 RLU.

What about the “RLU Raw” value (15 mg/kg x 1 days, group G, Day 10, Cp Mouse Efficacy 2) of the same compound?
Its value is 2410000 RLU.

And the “RLU Raw” value (15 mg/kg x 1 days, group G, Day 13, Cp Mouse Efficacy 2)?
Its value is 338704 RLU.

What about the “RLU Raw” value (15 mg/kg x 1 days, group G, Day 15, Cp Mouse Efficacy 2) of the same compound?
The value was 51520 RLU.

And the “RLU Raw” value (15 mg/kg x 1 days, group G, Day 17, Cp Mouse Efficacy 2)?
The value was 66336 RLU.

What about the “RLU Raw” value (15 mg/kg x 1 days, group G, Day 20, Cp Mouse Efficacy 2) of the same compound?
Its value is 43392 RLU.

And the “RLU standardized by fecal weight” value (15 mg/kg x 1 days, group G, day 6 p.i., Cp Mouse Efficacy 2)?
Its value is 18713 RLU.

What about the “RLU standardized by fecal weight” value (15 mg/kg x 1 days, group G, day 7 p.i., Cp Mouse Efficacy 2) of the same compound?
The value was 21344 RLU.

And the “RLU standardized by fecal weight” value (15 mg/kg x 1 days, group G, day 8 p.i., Cp Mouse Efficacy 2)?
The value was 110381 RLU.

What about the “RLU standardized by fecal weight” value (15 mg/kg x 1 days, group G, day 9 p.i., Cp Mouse Efficacy 2) of the same compound?
Its value is 122510 RLU.

What about the “RLU standardized by fecal weight” value (15 mg/kg x 1 days, group G, day 10 p.i., Cp Mouse Efficacy 2) of the same compound?
The value was 529670 RLU.

What about the “RLU standardized by fecal weight” value (15 mg/kg x 1 days, group G, day 13 p.i., Cp Mouse Efficacy 2) of the same compound?
Its value is 94084 RLU.

What about the “RLU standardized by fecal weight” value (15 mg/kg x 1 days, group G, day 15 p.i., Cp Mouse Efficacy 2) of the same compound?
Its value is 6869 RLU.

What about the “RLU standardized by fecal weight” value (15 mg/kg x 1 days, group G, day 17 p.i., Cp Mouse Efficacy 2) of the same compound?
Its value is 20102 RLU.

What about the “RLU standardized by fecal weight” value (15 mg/kg x 1 days, group G, day 20 p.i., Cp Mouse Efficacy 2) of the same compound?
The value was 10091 RLU.

And the “RLU Raw” value (15 mg/kg x 2 days, group H, Day 6, Cp Mouse Efficacy 2)?
Its value is 505536 RLU.

What about the “RLU Raw” value (15 mg/kg x 2 days, group H, Day 7, Cp Mouse Efficacy 2) of the same compound?
The value was 606112 RLU.

And the “RLU Raw” value (15 mg/kg x 2 days, group H, Day 8, Cp Mouse Efficacy 2)?
Its value is 78272 RLU.

What about the “RLU Raw” value (15 mg/kg x 2 days, group H, Day 9, Cp Mouse Efficacy 2) of the same compound?
Its value is 75472 RLU.

And the “RLU Raw” value (15 mg/kg x 2 days, group H, Day 10, Cp Mouse Efficacy 2)?
The value was 77152 RLU.

What about the “RLU Raw” value (15 mg/kg x 2 days, group H, Day 13, Cp Mouse Efficacy 2) of the same compound?
The value was 20208 RLU.

And the “RLU Raw” value (15 mg/kg x 2 days, group H, Day 15, Cp Mouse Efficacy 2)?
Its value is 12176 RLU.

And the “RLU Raw” value (15 mg/kg x 2 days, group H, Day 17, Cp Mouse Efficacy 2)?
Its value is 9280 RLU.

And the “RLU Raw” value (15 mg/kg x 2 days, group H, Day 20, Cp Mouse Efficacy 2)?
Its value is 10848 RLU.

What about the “RLU standardized by fecal weight” value (15 mg/kg x 2 days, group H, day 6 p.i., Cp Mouse Efficacy 2) of the same compound?
Its value is 118950 RLU.

And the “RLU standardized by fecal weight” value (15 mg/kg x 2 days, group H, day 7 p.i., Cp Mouse Efficacy 2)?
The value was 269383 RLU.

What about the “RLU standardized by fecal weight” value (15 mg/kg x 2 days, group H, day 8 p.i., Cp Mouse Efficacy 2) of the same compound?
Its value is 14630 RLU.

What about the “RLU standardized by fecal weight” value (15 mg/kg x 2 days, group H, day 9 p.i., Cp Mouse Efficacy 2) of the same compound?
The value was 18635 RLU.

And the “RLU standardized by fecal weight” value (15 mg/kg x 2 days, group H, day 10 p.i., Cp Mouse Efficacy 2)?
Its value is 18370 RLU.

What about the “RLU standardized by fecal weight” value (15 mg/kg x 2 days, group H, day 13 p.i., Cp Mouse Efficacy 2) of the same compound?
Its value is 1962 RLU.

What about the “RLU standardized by fecal weight” value (15 mg/kg x 2 days, group H, day 15 p.i., Cp Mouse Efficacy 2) of the same compound?
The value was 2387 RLU.

And the “RLU standardized by fecal weight” value (15 mg/kg x 2 days, group H, day 17 p.i., Cp Mouse Efficacy 2)?
Its value is 1160 RLU.

And the “RLU standardized by fecal weight” value (15 mg/kg x 2 days, group H, day 20 p.i., Cp Mouse Efficacy 2)?
The value was 4094 RLU.

And the “RLU Raw” value (15 mg/kg x 3 days, group I, Day 6, Cp Mouse Efficacy 2)?
The value was 932240 RLU.

What about the “RLU Raw” value (15 mg/kg x 3 days, group I, Day 7, Cp Mouse Efficacy 2) of the same compound?
Its value is 627218 RLU.

What about the “RLU Raw” value (15 mg/kg x 3 days, group I, Day 8, Cp Mouse Efficacy 2) of the same compound?
The value was 396768 RLU.

And the “RLU Raw” value (15 mg/kg x 3 days, group I, Day 9, Cp Mouse Efficacy 2)?
Its value is 37984 RLU.

And the “RLU Raw” value (15 mg/kg x 3 days, group I, Day 10, Cp Mouse Efficacy 2)?
Its value is 6160 RLU.

And the “RLU Raw” value (15 mg/kg x 3 days, group I, Day 13, Cp Mouse Efficacy 2)?
Its value is 1280 RLU.

What about the “RLU Raw” value (15 mg/kg x 3 days, group I, Day 15, Cp Mouse Efficacy 2) of the same compound?
Its value is 656 RLU.

And the “RLU Raw” value (15 mg/kg x 3 days, group I, Day 17, Cp Mouse Efficacy 2)?
The value was 496 RLU.

What about the “RLU Raw” value (15 mg/kg x 3 days, group I, Day 20, Cp Mouse Efficacy 2) of the same compound?
The value was 864 RLU.
